{
  "source": "patent US11746116B2",
  "about": "“Antibiotic resistance breakers” (KING'S COLLEGE LONDON, priority 2017, dated 2023)",
  "key": {"extended bacterial panel": {"tested_on": "extended bacterial panel", "test": "MIC against an extended bacterial panel (Table 15)", "format": "cell-based"}, "KP13368": {"tested_on": "KP13368", "test": "MIC, microdilution broth method", "format": "cell-based"}},
  "data": [
    {"compound": "Cc1cc(C)nc(N[C@@H]2CCN(c3c(F)cc4c(=O)c(C(=O)O)cn5c4c3OC[C@@H]5C)C2)n1", "note": "[KSN-BL7, (S)-10-((R)-3-((4,6-dimethylpyrimidin-2-yl)amino)pyrrolidin-1-yl)-9-fluoro-3-methyl-7-oxo-2,3-dihydro-7H-[1,4]oxazino[2,3,4-ij]quinoline-6-carboxylic acid]", "values": [
      {"measurement": "MIC", "setting": "extended bacterial panel; Staphylococcus aureus, MRSA / VISA, Staphylococcus aureus FDA-CDC AR-BANK# 0218, MRSA/VISA Mupirocin-R", "result": 1, "unit": "µg/mL"},
      {"measurement": "MIC", "setting": "extended bacterial panel; Staphylococcus aureus, MRSA / VISA, Staphylococcus aureus FDA-CDC AR-BANK# 0219", "result": 4, "unit": "µg/mL"},
      {"measurement": "MIC", "setting": "extended bacterial panel; Staphylococcus aureus, MRSA / VISA, Staphylococcus aureus FDA-CDC AR-BANK# 0220", "result": 1, "unit": "µg/mL"},
      {"measurement": "MIC", "setting": "extended bacterial panel; Staphylococcus aureus, MRSA / VISA, Staphylococcus aureus FDA-CDC AR-BANK# 0221", "result": 0.5, "unit": "µg/mL"},
      {"measurement": "MIC", "setting": "extended bacterial panel; Staphylococcus aureus, MRSA / VISA, Staphylococcus aureus FDA-CDC AR-BANK# 0223", "result": 1, "unit": "µg/mL"},
      {"measurement": "MIC", "setting": "extended bacterial panel; Staphylococcus aureus, MRSA / VISA, Staphylococcus aureus FDA-CDC AR-BANK# 0224, MRSA/VISA Mupirocin-R", "result": 1, "unit": "µg/mL"},
      {"measurement": "MIC", "setting": "extended bacterial panel; Staphylococcus aureus, MRSA / VISA, Staphylococcus aureus FDA-CDC AR-BANK# 0225", "result": 1, "unit": "µg/mL"},
      {"measurement": "MIC", "setting": "extended bacterial panel; Staphylococcus aureus, MRSA / VISA, Staphylococcus aureus FDA-CDC AR-BANK# 0226", "result": "≤ 0.0312", "unit": "µg/mL"},
      {"measurement": "MIC", "setting": "extended bacterial panel; Staphylococcus aureus, MRSA / VISA, Staphylococcus aureus FDA-CDC AR-BANK# 0227", "result": 1, "unit": "µg/mL"},
      {"measurement": "MIC", "setting": "extended bacterial panel; Staphylococcus aureus, MRSA / VISA, Staphylococcus aureus FDA-CDC AR-BANK# 0228, MRSA/VISA Mupirocin-R", "result": 8, "unit": "µg/mL"},
      {"measurement": "MIC", "setting": "extended bacterial panel; Staphylococcus aureus, MRSA / VRSA, Staphylococcus aureus VRS1, VanA MRSA/VRSA", "result": 1, "unit": "µg/mL"},
      {"measurement": "MIC", "setting": "extended bacterial panel; Staphylococcus aureus, MRSA / VRSA, Staphylococcus aureus VRS2, VanA MRSA/VRSA", "result": 0.5, "unit": "µg/mL"},
      {"measurement": "MIC", "setting": "extended bacterial panel; Staphylococcus aureus, MRSA / VRSA, Staphylococcus aureus VRS3a, VanA MRSA/VRSA", "result": 0.5, "unit": "µg/mL"},
      {"measurement": "MIC", "setting": "extended bacterial panel; Staphylococcus aureus, MRSA / VRSA, Staphylococcus aureus VRS11b, VanA MRSA/VRSA", "result": 2, "unit": "µg/mL"},
      {"measurement": "MIC", "setting": "extended bacterial panel; Staphylococcus aureus, MRSA, Staphylococcus aureus ECL 2963621, MRSA DAP-NS", "result": 0.25, "unit": "µg/mL"},
      {"measurement": "MIC", "setting": "extended bacterial panel; Staphylococcus aureus, MRSA, Staphylococcus aureus ECL 2963666, MRSA DAP-NS", "result": 1, "unit": "µg/mL"},
      {"measurement": "MIC", "setting": "extended bacterial panel; Staphylococcus aureus, MRSA, Staphylococcus aureus ECL 2963667, MRSA DAP-NS", "result": 1, "unit": "µg/mL"},
      {"measurement": "MIC", "setting": "extended bacterial panel; Staphylococcus aureus, MRSA, Staphylococcus aureus ECL 2963743, MRSA DAP-NS", "result": 0.5, "unit": "µg/mL"},
      {"measurement": "MIC", "setting": "extended bacterial panel; Staphylococcus aureus, MRSA, Staphylococcus aureus R136", "result": 0.5, "unit": "µg/mL"},
      {"measurement": "MIC", "setting": "extended bacterial panel; Staphylococcus aureus, NRS 12 / VISA, Staphylococcus aureus NRS12, VISA", "result": 0.0625, "unit": "µg/mL"},
      {"measurement": "MIC", "setting": "extended bacterial panel; Staphylococcus aureus, NRS72, Staphylococcus aureus Sanger-476, NRS72", "result": "≤ 0.0312", "unit": "µg/mL"},
      {"measurement": "MIC", "setting": "extended bacterial panel; Staphylococcus aureus, NRS157, Staphylococcus aureus NRS157", "result": "≤ 0.0312", "unit": "µg/mL"},
      {"measurement": "MIC", "setting": "extended bacterial panel; Staphylococcus aureus, Staphylococcus aureus 6538P", "result": "≤ 0.0312", "unit": "µg/mL"},
      {"measurement": "MIC", "setting": "extended bacterial panel; Staphylococcus aureus, VISA, Staphylococcus aureus FDA-CDC AR-BANK# 0222", "result": "≤ 0.0312", "unit": "µg/mL"},
      {"measurement": "MIC", "setting": "extended bacterial panel; Staphylococcus aureus, VRSA, Staphylococcus aureus ECL 2963646", "result": 0.5, "unit": "µg/mL"},
      {"measurement": "MIC", "setting": "extended bacterial panel; Staphylococcus epidermidis, ATCC12228, Staphylococcus epidermidis ATCC 12228", "result": "≤ 0.0312", "unit": "µg/mL"},
      {"measurement": "MIC", "setting": "extended bacterial panel; Staphylococcus epidermidis, ATCC51625, Staphylococcus epidermidis CCF 15990, ATCC 51625", "result": "≤ 0.0312", "unit": "µg/mL"},
      {"measurement": "MIC", "setting": "extended bacterial panel; Staphylococcus epidermidis, NRS7, Staphylococcus epidermidis NRS7, VISE", "result": 0.5, "unit": "µg/mL"},
      {"measurement": "MIC", "setting": "extended bacterial panel; Staphylococcus epidermidis, NRS8, Staphylococcus epidermidis NRS8, VISE", "result": 1, "unit": "µg/mL"},
      {"measurement": "MIC", "setting": "extended bacterial panel; Staphylococcus epidermidis, NRS60, Staphylococcus epidermidis NRS60, VISE", "result": 0.0625, "unit": "µg/mL"},
      {"measurement": "MIC", "setting": "extended bacterial panel; Staphylococcus epidermidis, NRS101, Staphylococcus epidermidis NRS101", "result": "≤ 0.0312", "unit": "µg/mL"},
      {"measurement": "MIC", "setting": "extended bacterial panel; Staphylococcus haemolyticus, ATCC29970, Staphylococcus haemolyticus ATCC 29970", "result": "≤ 0.0312", "unit": "µg/mL"},
      {"measurement": "MIC", "setting": "extended bacterial panel; Staphylococcus intermedius, ATCC29663, Staphylococcus intermedius ATCC 29663", "result": "≤ 0.0312", "unit": "µg/mL"},
      {"measurement": "MIC", "setting": "extended bacterial panel; Staphylococcus saprophyticus, ATCC15305, Staphylococcus saprophyticus ATCC 15305", "result": 0.0625, "unit": "µg/mL"},
      {"measurement": "MIC", "setting": "extended bacterial panel; Strepotococcus pyogenes ATCC 14289", "result": 0.125, "unit": "µg/mL"},
      {"measurement": "MIC", "setting": "extended bacterial panel; Strepotococcus pyogenes ATCC 19615", "result": 0.125, "unit": "µg/mL"},
      {"measurement": "MIC", "setting": "extended bacterial panel; Streptococcus agalactiae, ATCC12386, Streptococcus agalactiae ATCC 12386", "result": 0.25, "unit": "µg/mL"},
      {"measurement": "MIC", "setting": "extended bacterial panel; Streptococcus mutans, ATCC25175, Streptococcus mutans ATCC 25175", "result": "≤ 0.0312", "unit": "µg/mL"},
      {"measurement": "MIC", "setting": "extended bacterial panel; Streptococcus oralis, ATCC9811, Streptococcus oralis ATCC 9811", "result": 0.25, "unit": "µg/mL"},
      {"measurement": "MIC", "setting": "extended bacterial panel; Streptococcus pneumoniae, ATCC6301, Streptococcus pneumoniae ATCC 6301", "result": 0.125, "unit": "µg/mL"},
      {"measurement": "MIC", "setting": "extended bacterial panel; Streptococcus pneumoniae, ATCC49619, Streptococcus pneumoniae ATCC 49619", "result": 0.125, "unit": "µg/mL"},
      {"measurement": "MIC", "setting": "extended bacterial panel; Streptococcus pneumoniae, ATCC51916, Streptococcus pneumoniae Tenessee 23F, ATCC 51916, MDR", "result": 0.125, "unit": "µg/mL"},
      {"measurement": "MIC", "setting": "extended bacterial panel; Streptococcus pneumoniae, ATCC700669, Streptococcus pneumoniae SP264, ATCC 700669, ST 23F", "result": 0.0625, "unit": "µg/mL"},
      {"measurement": "MIC", "setting": "extended bacterial panel; Streptococcus pneumoniae, ATCC700673, Streptococcus pneumoniae Hungary 19A, ATCC 700673, MDR", "result": 0.0625, "unit": "µg/mL"},
      {"measurement": "MIC", "setting": "extended bacterial panel; Streptococcus pneumoniae, ATCC700675, Streptococcus pneumoniae S. Africa 6B-8, ATCC 700675", "result": 0.0625, "unit": "µg/mL"},
      {"measurement": "MIC", "setting": "extended bacterial panel; Streptococcus pneumoniae, ATCC700676, Streptococcus pneumonia England ST14-9 ATCC 700676, ERY-R", "result": 0.125, "unit": "µg/mL"},
      {"measurement": "MIC", "setting": "extended bacterial panel; Streptococcus pneumoniae, ATCC 700677 / PRSP, Streptococcus pneumoniae CSR 14-10, ATCC 700677, PRSP", "result": 0.0625, "unit": "µg/mL"},
      {"measurement": "MIC", "setting": "extended bacterial panel; Streptococcus pneumoniae, PRSP, Streptococcus pneumoniae TM532", "result": 0.0625, "unit": "µg/mL"},
      {"measurement": "MIC", "setting": "extended bacterial panel; Streptococcus salivarius, ATCC13419, Streptococcus salivarius ATCC 13419", "result": 0.25, "unit": "µg/mL"},
      {"measurement": "MIC", "setting": "extended bacterial panel; Streptococcus sanguinis, ATCC10556, Streptococcus sanguinis ATCC 10556", "result": 0.25, "unit": "µg/mL"},
      {"measurement": "MIC, KP13368", "setting": "KP13368; ESKAPE panel, Gram-negative", "result": 16, "unit": "µg/mL"},
      {"measurement": "MIC", "setting": "KP13368; Klebsiella pneumoniae", "result": 16, "unit": "µg/mL"}
    ]}
  ]
}
